According to PubChem BioAssay (NCI):
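In this assay, cells in 96-well plates receive the compound at five concentrations for 48 hours. Endpoints are linearly interpolated between the surrounding concentrations. GI50: concentration for 50% inhibition of growth. TGI: concentration producing complete growth inhibition.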

How the values were obtained:
Assay in all cases: NCI anticancer screen, dose series, 48 h
[1] = test system: ACHN renal
[2] = test system: OVCAR-5 ovarian
[3] = test system: NCI-H226 lung
[4] = test system: SNB-19 CNS
[5] = test system: BT-549 breast
[6] = test system: NCI/ADR-RES ovarian
[7] = test system: SK-OV-3 ovarian
[8] = test system: A498 renal
[9] = test system: MALME-3M melanoma
[10] = test system: SF-295 CNS
[11] = test system: HCT-116 colon
[12] = test system: SF-268 CNS
[13] = test system: SW-620 colon
[14] = test system: A549 NSCLC
[15] = test system: COLO 205 colon
[16] = test system: HCT-15 colon
[17] = test system: DU-145 prostate
[18] = test system: NCI-H460 lung
[19] = test system: SK-MEL-28 melanoma
[20] = test system: HOP-62 NSCLC
[21] = test system: KM12 colon
[22] = test system: UACC-257 melanoma
[23] = test system: SK-MEL-5 melanoma
[24] = test system: K-562 leukemia
[25] = test system: PC-3 prostate
[26] = test system: RPMI-8226 leukemia
[27] = test system: RXF 393 renal
[28] = test system: NCI-H23 lung
[29] = test system: M14 melanoma
[30] = test system: LOX IMVI melanoma
[31] = test system: SR leukemia
[32] = test system: T-47D breast
[33] = test system: IGROV1 ovarian
[34] = test system: UO-31 renal
[35] = test system: NCI-H522 lung
[36] = test system: OVCAR-8 ovarian
[37] = test system: MDA-MB-435
[38] = test system: TK-10 renal
[39] = test system: CAKI-1 renal
[40] = test system: MCF7 breast
[41] = test system: HL-60(TB) leukemia
[42] = test system: SK-MEL-2 melanoma
[43] = test system: OVCAR-3 ovarian
[44] = test system: SF-539 CNS
[45] = test system: MDA-MB-231 breast
[46] = test system: HS 578T breast
[47] = test system: OVCAR-4 ovarian
[48] = test system: MOLT-4 leukemia
[49] = test system: UACC-62 melanoma
[50] = test system: HOP-92 NSCLC
[51] = test system: HCC-2998 colon
[52] = test system: SNB-75 CNS
[53] = test system: U251 CNS
[54] = test system: 786-0 renal
[55] = test system: CCRF-CEM leukemia
[56] = test system: HT29 colon

COc1cccc2c1O/C(=C\c1ncc([N+](=O)[O-])n1C)C2=O
GI50 [1]: 82.6 nM | TGI [1]: 332 nM | GI50 [2]: 1700 nM | TGI [2]: 5820 nM | GI50 [3]: 1470 nM | TGI [3]: 4810 nM | GI50 [4]: 1300 nM | TGI [4]: 5750 nM | GI50 [5]: 413 nM | TGI [5]: 2650 nM | GI50 [6]: 277 nM | TGI [6]: 2900 nM | GI50 [7]: 911 nM | TGI [7]: 4210 nM | GI50 [8]: 1390 nM | TGI [8]: 3420 nM | GI50 [9]: 224 nM | TGI [9]: 563 nM | GI50 [10]: 1270 nM | TGI [10]: 4490 nM | GI50 [11]: 82.5 nM | TGI [11]: 691 nM | GI50 [12]: 221 nM | TGI [12]: 816 nM | GI50 [13]: 74.7 nM | TGI [13]: 1700 nM | GI50 [14]: 509 nM | TGI [14]: 3450 nM | GI50 [15]: 254 nM | TGI [15]: 1100 nM | GI50 [16]: 128 nM | TGI [16]: 404 nM | GI50 [17]: 266 nM | TGI [17]: 809 nM | GI50 [18]: 203 nM | TGI [18]: 603 nM | GI50 [19]: 239 nM | TGI [19]: 607 nM | GI50 [20]: 716 nM | TGI [20]: 2250 nM | GI50 [21]: 348 nM | TGI [21]: 1550 nM | GI50 [22]: 531 nM | TGI [22]: 4990 nM | GI50 [23]: 186 nM | TGI [23]: 502 nM | GI50 [24]: 422 nM | TGI [24]: 6220 nM | GI50 [25]: 662 nM | GI50 [26]: 949 nM | TGI [26]: 4110 nM | GI50 [27]: 229 nM | TGI [27]: 648 nM | GI50 [28]: 270 nM | TGI [28]: 1310 nM | GI50 [29]: 218 nM | TGI [29]: 719 nM | GI50 [30]: 116 nM | TGI [30]: 414 nM | GI50 [31]: < 16.5 nM | TGI [31]: 165 nM | GI50 [32]: 8250 nM | TGI [32]: 52900 nM | GI50 [33]: 303 nM | TGI [33]: 2460 nM | GI50 [34]: 173 nM | TGI [34]: 622 nM | GI50 [35]: 187 nM | TGI [35]: 474 nM | GI50 [36]: 167 nM | GI50 [37]: 133 nM | TGI [37]: 290 nM | GI50 [38]: 870 nM | GI50 [39]: 200 nM | TGI [39]: 579 nM | GI50 [40]: 467 nM | TGI [40]: 5040 nM | GI50 [41]: 234 nM | TGI [41]: 1350 nM | GI50 [42]: 242 nM | TGI [42]: 607 nM | GI50 [43]: 236 nM | TGI [43]: 632 nM | GI50 [44]: 1320 nM | TGI [44]: 3510 nM | GI50 [45]: 310 nM | TGI [45]: 1570 nM | GI50 [46]: 1040 nM | TGI [46]: > 21000 nM | GI50 [47]: 1920 nM | TGI [47]: 6230 nM | GI50 [48]: 68.9 nM | TGI [48]: 1360 nM | GI50 [49]: 569 nM | TGI [49]: 1670 nM | GI50 [50]: 343 nM | TGI [50]: 1680 nM | GI50 [51]: 1860 nM | TGI [51]: 7570 nM | GI50 [52]: 1390 nM | TGI [52]: 3970 nM | GI50 [53]: 745 nM | TGI [53]: 3190 nM | GI50 [54]: 375 nM | TGI [54]: 3890 nM | GI50 [55]: 53.7 nM | TGI [55]: 384 nM | GI50 [56]: 154 nM | TGI [56]: 599 nM
